According to PubChem BioAssay AID2060883 (Molecular Pharmacology Branch, DTP, NCI, 2025):

Test system: 843782-103-R-J1-PDC complex spheroid viability
Assay: Anticancer human tumor 843782-103-R-J1-PDC patient-derived lung adenocarcinoma cell line growth inhibition [RAS]
Settings: for viability, T/C: stronger effect = lower value
Method in brief: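 Multi-cell-type spheroids: tumor cells plus HUVEC endothelial cells and mesenchymal stem cells. RAS-pathway inhibitors were combined with targeted agents, each dosed in half-log steps down from clinical Cmax, or from 10 microM when Cmax was unknown.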
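Further: viability read after seven days of compound exposure.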

CC(=O)OC12COC1CC(O)C1(C)C(=O)C(O)C3=C(C)C(OC(=O)C(O)C(NC(=O)OC(C)(C)C)c4ccccc4)CC(O)(C(OC(=O)c4ccccc4)C21)C3(C)C (stereo unspecified) + C=CC(=O)N1CCN(c2nc(OCC3CCCN3C)nc3c(F)c(-c4nc(N)cc(C)c4C(F)(F)F)c(Cl)cc23)C(C)C1
IC50 (curve of first compound, second compound 0.00316 µM): < 31.6 nM
IC50 (curve of first compound, second compound 0.01 µM): < 31.6 nM
IC50 (curve of first compound, second compound 0.0316 µM): < 31.6 nM
IC50 (curve of first compound, second compound 0.1 µM): < 31.6 nM
IC50 (curve of first compound, second compound 0.316 µM): < 31.6 nM
IC50 (curve of first compound, second compound 1 µM): < 31.6 nM
viability, T/C (second compound 0.00316 µM, first compound 0.0316 µM): 3.83%
viability, T/C (second compound 0.00316 µM, first compound 0.1 µM): 3.97%
viability, T/C (second compound 0.00316 µM, first compound 0.316 µM): 4.72%
viability, T/C (second compound 0.00316 µM, first compound 1 µM): 5.04%
viability, T/C (second compound 0.00316 µM, first compound 3.16 µM): 6.7%
viability, T/C (second compound 0.00316 µM, first compound 10 µM): 7.46%
viability, T/C (second compound 0.01 µM, first compound 0.0316 µM): 3.55%
viability, T/C (second compound 0.01 µM, first compound 0.1 µM): 5.26%
viability, T/C (second compound 0.01 µM, first compound 0.316 µM): 5.77%
viability, T/C (second compound 0.01 µM, first compound 1 µM): 5.45%
viability, T/C (second compound 0.01 µM, first compound 3.16 µM): 4.97%
viability, T/C (second compound 0.01 µM, first compound 10 µM): 8.21%
viability, T/C (second compound 0.0316 µM, first compound 0.0316 µM): 4.29%
viability, T/C (second compound 0.0316 µM, first compound 0.1 µM): 4.99%
viability, T/C (second compound 0.0316 µM, first compound 0.316 µM): 5.82%
viability, T/C (second compound 0.0316 µM, first compound 1 µM): 4.83%
viability, T/C (second compound 0.0316 µM, first compound 3.16 µM): 5.52%
viability, T/C (second compound 0.0316 µM, first compound 10 µM): 6.14%
viability, T/C (second compound 0.1 µM, first compound 0.0316 µM): 4.07%
viability, T/C (second compound 0.1 µM, first compound 0.1 µM): 4.89%
viability, T/C (second compound 0.1 µM, first compound 0.316 µM): 5.53%
viability, T/C (second compound 0.1 µM, first compound 1 µM): 6.37%
viability, T/C (second compound 0.1 µM, first compound 3.16 µM): 3.49%
viability, T/C (second compound 0.1 µM, first compound 10 µM): 6.77%
viability, T/C (second compound 0.316 µM, first compound 0.0316 µM): 3.97%
viability, T/C (second compound 0.316 µM, first compound 0.1 µM): 3.89%
viability, T/C (second compound 0.316 µM, first compound 0.316 µM): 3.73%
viability, T/C (second compound 0.316 µM, first compound 1 µM): 5.43%
viability, T/C (second compound 0.316 µM, first compound 3.16 µM): 5.26%
viability, T/C (second compound 0.316 µM, first compound 10 µM): 7.59%
viability, T/C (second compound 1 µM, first compound 0.0316 µM): 4.07%
viability, T/C (second compound 1 µM, first compound 0.1 µM): 3.8%
viability, T/C (second compound 1 µM, first compound 0.316 µM): 4.24%
viability, T/C (second compound 1 µM, first compound 1 µM): 3.62%
viability, T/C (second compound 1 µM, first compound 3.16 µM): 4.03%
viability, T/C (second compound 1 µM, first compound 10 µM): 7.53%

CC(Nc1ccc2c(c1)OCCn1cc(N3C(=O)OCC3C(F)F)nc1-2)C(N)=O (stereo unspecified) + CCn1c(-c2cccnc2C(C)OC)c2c3cc(ccc31)N1CCOC(CC(NC(=O)C(C(C)C)N(C)C(=O)C3(F)CCN(C(=O)C#CC(C)(C)N(C)C)CC3)C(=O)N3CCCC(N3)C(=O)OCC(C)(C)C2)C1
IC50 (curve of first compound, second compound 0.000949 µM): 35.2 nM
IC50 (curve of first compound, second compound 0.003 µM): < 31.6 nM
IC50 (curve of first compound, second compound 0.00949 µM): 38.4 nM
IC50 (curve of first compound, second compound 0.03 µM): 34.8 nM
IC50 (curve of first compound, second compound 0.0949 µM): 42.1 nM
IC50 (curve of first compound, second compound 0.3 µM): < 31.6 nM
viability, T/C (second compound 0.000949 µM, first compound 0.0316 µM): 52.9%
viability, T/C (second compound 0.000949 µM, first compound 0.1 µM): 31.6%
viability, T/C (second compound 0.000949 µM, first compound 0.316 µM): 31.5%
viability, T/C (second compound 0.000949 µM, first compound 1 µM): 16.4%
viability, T/C (second compound 0.000949 µM, first compound 3.16 µM): 14.3%
viability, T/C (second compound 0.000949 µM, first compound 10 µM): 7.59%
viability, T/C (second compound 0.003 µM, first compound 0.0316 µM): 44.2%
viability, T/C (second compound 0.003 µM, first compound 0.1 µM): 36.5%
viability, T/C (second compound 0.003 µM, first compound 0.316 µM): 25.6%
viability, T/C (second compound 0.003 µM, first compound 1 µM): 25.1%
viability, T/C (second compound 0.003 µM, first compound 3.16 µM): 14.9%
viability, T/C (second compound 0.003 µM, first compound 10 µM): 9.07%
viability, T/C (second compound 0.00949 µM, first compound 0.0316 µM): 53%
viability, T/C (second compound 0.00949 µM, first compound 0.1 µM): 37.7%
viability, T/C (second compound 0.00949 µM, first compound 0.316 µM): 23.8%
viability, T/C (second compound 0.00949 µM, first compound 1 µM): 19.6%
viability, T/C (second compound 0.00949 µM, first compound 3.16 µM): 14.1%
viability, T/C (second compound 0.00949 µM, first compound 10 µM): 8.01%
viability, T/C (second compound 0.03 µM, first compound 0.0316 µM): 52%
viability, T/C (second compound 0.03 µM, first compound 0.1 µM): 34.8%
viability, T/C (second compound 0.03 µM, first compound 0.316 µM): 24.9%
viability, T/C (second compound 0.03 µM, first compound 1 µM): 18.9%
viability, T/C (second compound 0.03 µM, first compound 3.16 µM): 13.8%
viability, T/C (second compound 0.03 µM, first compound 10 µM): 7.4%
viability, T/C (second compound 0.0949 µM, first compound 0.0316 µM): 56%
viability, T/C (second compound 0.0949 µM, first compound 0.1 µM): 32.5%
viability, T/C (second compound 0.0949 µM, first compound 0.316 µM): 24.1%
viability, T/C (second compound 0.0949 µM, first compound 1 µM): 21.1%
viability, T/C (second compound 0.0949 µM, first compound 3.16 µM): 13.9%
viability, T/C (second compound 0.0949 µM, first compound 10 µM): 7.55%
viability, T/C (second compound 0.3 µM, first compound 0.0316 µM): 50.3%
viability, T/C (second compound 0.3 µM, first compound 0.1 µM): 35.7%
viability, T/C (second compound 0.3 µM, first compound 0.316 µM): 25.6%
viability, T/C (second compound 0.3 µM, first compound 1 µM): 19.4%
viability, T/C (second compound 0.3 µM, first compound 3.16 µM): 10.7%
viability, T/C (second compound 0.3 µM, first compound 10 µM): 6.72%

CC(C)n1nc(-c2ccc3oc(N)nc3c2)c2c(N)ncnc21
viability, T/C (compound 0.000316 µM): 108% [middle of 4 runs]
viability, T/C (compound 0.001 µM): 94% [middle of 4 runs]
viability, T/C (compound 0.00316 µM): 91.6% [middle of 4 runs]
viability, T/C (compound 0.01 µM): 72.3% [middle of 4 runs]
viability, T/C (compound 0.0316 µM): 48.1% [middle of 4 runs]
viability, T/C (compound 0.1 µM): 28.8% [middle of 4 runs]
IC50 (curve of compound): 31.2 nM [middle of 4 runs]
